Experimental data published in PMC6442743 (Bioorganic & medicinal chemistry letters, 2018).

How the values were obtained:
[1] = Water solubility in sodium phosphate buffer; format: physicochemical; conditions: for fold more soluble in water than 3a: compared with 3a
[2] = target: T1, human sEH (Homo sapiens, UniProt P34913); assay: sEH inhibition, kinetic fluorescent assay; format: biochemical
T1 sequence (P34913 1-555): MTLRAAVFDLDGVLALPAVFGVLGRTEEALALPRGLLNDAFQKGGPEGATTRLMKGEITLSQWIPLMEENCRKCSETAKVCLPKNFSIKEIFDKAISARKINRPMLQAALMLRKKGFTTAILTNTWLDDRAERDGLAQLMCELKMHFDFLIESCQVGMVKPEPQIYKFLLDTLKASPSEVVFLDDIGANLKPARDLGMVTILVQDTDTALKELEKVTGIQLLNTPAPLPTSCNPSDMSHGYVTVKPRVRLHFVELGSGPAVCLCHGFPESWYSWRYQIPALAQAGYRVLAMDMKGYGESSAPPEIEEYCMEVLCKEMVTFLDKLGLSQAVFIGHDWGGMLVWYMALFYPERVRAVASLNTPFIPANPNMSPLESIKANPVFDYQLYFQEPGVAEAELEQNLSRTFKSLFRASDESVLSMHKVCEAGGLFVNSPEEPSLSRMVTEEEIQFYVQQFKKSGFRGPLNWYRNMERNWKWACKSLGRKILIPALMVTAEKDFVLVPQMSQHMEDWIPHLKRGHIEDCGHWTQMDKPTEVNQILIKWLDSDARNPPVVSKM

[3] = compared with 1a, sodium phosphate buffer pH 7.4, 0.1 M, 1% DMSO

S=C(NC1C2CC3CC(C2)CC1C3)NC12CC3CC(CC(C3)C1)C2 (stereo not drawn) [4a]
fold more soluble in water than 3a [1]: 1.8 fold

CC12CC3CC(C)(C1)CC(NC(=S)Nc1ccccc1)(C3)C2 [1a]
fold more potent than 1b ([2]; compared with 1b): 2 fold | water solubility (in words) ([1]; sodium phosphate buffer pH 7.4, 0.1 M, 1% DMSO): poorly soluble in water

S=C(NCCCCCCCCCCNC(=S)NC12CC3CC(CC(C3)C1)C2)NC12CC3CC(CC(C3)C1)C2 [6h]
fold difference in water solubility vs. 6a (decrease) ([1]; compared with 6a (1,2-ethylene spacer)): 3 fold

CC12CC3CC(C)(C1)CC(NC(=S)Nc1ccc(F)cc1)(C3)C2 [1n]
fold more soluble in water vs. 1a [1, 3]: 4 fold

CC12CC3CC(C)(C1)CC(NC(=S)NCc1ccccc1)(C3)C2 [1d]
fold decrease in water solubility vs. 1a [1, 3]: 4 fold

S=C(NCCc1ccccc1)NC1C2CC3CC(C2)CC1C3 (stereo not drawn) [2c]
fold increase of inhibition potency vs. 2b ([2]; compared with 2b): 4 fold

CCC(CC12CC3CC(CC(C3)C1)C2)NC(=S)Nc1ccccc1 (stereo not drawn) [1c]
fold less potent than 1a ([2]; compared with 1a): 25 fold

S=C(NC1C2CC3CC(C2)CC1C3)NC1C2CC3CC(C2)CC1C3 (stereo not drawn) [compound 5]
fold more soluble in water than 3a [1]: 1.5 fold

S=C(NCCNC(=S)NC12CC3CC(CC(C3)C1)C2)NC12CC3CC(CC(C3)C1)C2 [6a]
fold less potent than the rest of thioureas in this series ([2]; compared with the other dithioureas of series 6): 10–137 fold

S=C(NCc1ccccc1)NC1C2CC3CC(C2)CC1C3 (stereo not drawn) [2b]
fold increase of inhibition potency vs. 2a ([2]; compared with 2a): 6.7 fold

S=C(Nc1ccc(C23CC4CC(CC(C4)C2)C3)cc1)Nc1ccc(C23CC4CC(CC(C4)C2)C3)cc1 [3j]
fold decrease in inhibition potency vs. 3a ([2]; compared with 3a): 1367 fold | fold more soluble in water than 3a [1]: 3 fold

S=C(Nc1ccccc1)NC1C2CC3CC(C2)CC1C3 (stereo not drawn) [2a]
fold less potent than its urea analog ([2]; compared with urea analog): 13 fold

S=C(NC12CC3CC(CC(C3)C1)C2)NC12CC3CC(CC(C3)C1)C2 [3a, di(adamantan-1yl)thiourea]
fold more water soluble than urea of corresponding structure ([1]; compared with corresponding urea, urea data ref 17 for 3a): 4.7 fold
